Data set [1] in a line: Liposomal CTC and MTC PK, single slow intravenous bolus, plasma HPLC. In kind it is in vivo. Particulars: Balb/c mice.
Experimental: 5 μL of each plasma sample was mixed with 395 μL methanol containing 1% formic acid. Sample mixtures were well mixed by vortexing. […] Samples were vortexed and then centrifuged at 10000 RPM for 10 min at room temperature. 200 μL of supernatant was removed from each sample without disturbing pellet and analyzed by HPLC. If the amount of plasma permitted, this analysis was duplicated.
The concentration of STC in the plasma samples was quantified by standard curve constructed by analyzing plasma samples containing known amount of STC. PK profiles were analyzed.
A further data set has as its system mouse CLP sepsis model. The data set can be described thus: Survival Study 1 (TP-936), CLP sepsis efficacy. The class given is in vivo, C57BL/6 mice. Particulars: CLP mice treated with saline and imipenem (imipenem-treated control). The source says:
Male and/or female C57BL/6 mice ordered from Envigo Laboratories or the Jackson Lab (Bar Harbor, Maine) were acclimated to housing conditions and handled in accordance with Animal Use Protocol (AUP) number TP-05. The animals were acclimated for approximately 1 week prior to study start. Only animals deemed healthy were included in this study. Animals were fed irradiated Teklad Global Rodent Diet 2918 and water ad libitum. Mice were group housed 5/cage in static cages with irradiated Teklad ⅛″ corn cob bedding 7902 inside bioBubble® Clean Rooms that provide H.E.P. A filtered air into the bubble environment at 100 complete air changes per hour. The environment was controlled to a temperature range of 74°±5° F. and a humidity range of 30-70%. Treatment groups were identified by cage card. Individual mice were identified by indelible marker on the base of the tail. All procedures carried out in this experiment were conducted in compliance with the laws, regulations, and guidelines of the National Institutes of Health and with the approval of the TransPharm Animal Care and Use Committee.
On Day −1, male and/or female mice were anesthetized through use of isoflurane and brought to a surgical plane. […]
Animals were monitored continually post-surgery, at least once every 2-3 minutes for approximately 30 minutes, until the animals had recovered and were able to move about on their own. […]

For orientation: AUC means concentration integrated over time. In general, mortality refers to the percentage killed.

For `CC(/C=C/C=C(\C)C(=O)O)=C\C=C\C=C(C)\C=C\C=C(/C)C(=O)O` [STC free drug, sodium trans-crocetinate], in data set [1], the exposure (AUC) worked out at 260 µg·h/mL and the T1/2 was found to be 28.2 min.

In the data set on mouse CLP sepsis model, `C[C@@H](O)[C@H]1C(=O)N2C(C(=O)O)=C(SCCN=CN)C[C@H]12` [imipenem] came in with a mortality of 50%.

Source of the values: patent US20260191810A1, “CAROTENOID COMPOSITIONS AND USES THEREOF” (L.E.A.F. HOLDINGS GROUP LLC, priority 2019, published 2026).
